# Target: MAGE-A11:PCF11 (Homo sapiens (Human), UniProt P43364)
# Assay: TR-FRET single point screening at 15 μM
# Type: binding
# Set-up: unit not given here
# Settings: single point TR-FRET screening at 15 μM against MAGE-A11:PCF11
# Text: TR-FRET Assays and High-throughput Screen. Terbium-anti-GST antibody, 1 M Tris pH 7.5 1 M MgCl2 and 1 M DTT were purchased from Invitrogen (Carlsbad, CA), BSA was purchased from Sigma (St. Louis, MO). Dimethyl sulfoxide (DMSO) was purchased from Fisher Scientific (Pittsburgh, PA). Black 384-well low volume plates and 384-well polypropylene compound plates were purchased from Corning Incorporated (Tewksbury, MA). The St. Jude FDA drug and Bioactive library (11,293 chemicals), Drug-like library (10,073 chemicals) and Lead-like library (10,041 chemicals) were custom assembled and purchased from commercial sources including Sigma, Microsource (Gaylordsville, CT), selleckchem (Houston, TX), ChemDiv (San Diego, CA), ChemBridge (San Diego, CA), Enamine (Monmouth Jct., NJ), and Life Chemicals (Niagara-on-the-Lake, ON, Canada). They were arrayed (10 mM in DMSO) in 384-well polypropylene compound plates with columns 1, 2, 13 and 14 empty which were reserved for controls.
# The TR-FRET assay buffer with a formula of 50 mM Tris pH 7.5, 20 mM MgCl2, 0.1 mg/ml BSA and 1 mM DTT was freshly prepared before each experiment. All TR-FRET assays were performed in black 384-well plates with 20 μl/well assay volume in the TR-FRET assay buffer at room temperature (approximately 25° C.). All peptides or compounds were solubilized in DMSO. To test the competitive activity of peptides or compounds against the interaction between GST-MAGEA11 MHD and FAM-PCF11_4 peptide, 10 μl/well peptide or compound at specified concentration was dispensed into a black 384-well low volume plate, followed by 5 μl/well FAM-PCF11_4 (800 nM), 5 μl/well Tb-anti-GST (20 nM) and GST-MAGEA11 MHD (20 nM). The assay components in each well was then mixed by shaking the plate on an IKA MTS 2/4 digital microtiter plate shaker (IKA Works; Wilmington, NC, USA) at 900 RPM for 1 minute. The plate was further centrifuged in an Eppendorf 5810 centrifuge with an A-4-62 swing-bucket rotor (Eppendorf AG, Hamburg, Germany) at 201 g (1000 rpm) for 30 seconds. The plate was then incubated for 90 min with a lid to avoid light exposure to the assay components. After incubation, the fluorescent emission signals at 520 nm and 490 nm channels of individual wells were measured with a PHERAstar FS plate reader (BMG Labtech; Durham, NC, USA) by using a 340 nm excitation filter, 100 μs delay time, and 200 μs integration time. The TR-FRET fluorescence emission ratio (TR-FRET signal) for each well was presented as 10 000×520 nm/490 nm, which was used directly for curve fitting, or further converted to % Inhibition based on the respective positive and negative controls. The graphic software GraphPad Prism 4.81 (GraphPad Software; La Jolla, CA, USA) was used to generate curves and derive IC50 values of tested peptides or compounds, if applicable.
# TR-FRET screen for identifying MAGEA11 small molecule inhibitors was performed as follows. The primary one-concentration screening and subsequent 10 or 20-concentration dose response tests were accomplished with an automated High Throughput Screening system (HighRes Biosolutions, Beverly, MA)^30. In the primary screening, 15 μl/well FAM-PCF11_4 (267 nM) was first dispensed with a Multidrop Combi Reagent Dispenser (Thermo Fisher Scientific, Waltham, MA) to black 384-well low volume assay plates. The plates were spun down with a Velocity11 VSpin microplate centrifuge (Agilent Technologies, Santa Clara, CA). 30 nl/well of 10 mM compound/DMSO solutions, or DMSO alone, were transferred from compound plates (the St. Jude FDA drug and bioactive library, Drug-like library and Lead-like library) or a control plate to the assay plates with a Pin Tool (V&P Scientific, San Diego, CA). The compounds were arrayed in columns 3 to 12 and columns 15 to 24 of compound plates. The controls were arrayed in columns 1, 2, 13 and 14 of a compound plate. […]
# Chain of MAGE-A11:PCF11 (P43364 218-429): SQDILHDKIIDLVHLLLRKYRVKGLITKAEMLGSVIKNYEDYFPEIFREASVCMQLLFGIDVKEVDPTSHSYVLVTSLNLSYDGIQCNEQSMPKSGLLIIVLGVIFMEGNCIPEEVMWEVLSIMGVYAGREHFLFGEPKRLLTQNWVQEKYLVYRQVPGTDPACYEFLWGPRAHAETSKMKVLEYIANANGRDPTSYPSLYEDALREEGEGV
row,SMILES,TR-FRET signal
1,COc1ccc2nc3cc(Cl)ccc3c(NCCCNCc3cccs3)c2c1 [SJ000361088],−453.5
2,CC(=O)Nc1ccc(S(=O)(=O)N2CCN(c3ccnc4cc(Cl)ccc34)CC2)cc1 [SJ000193862],−16.19
3,CCCN(CCCCNc1ccnc2cc(Cl)ccc12)Cc1ccc[nH]1 [SJ000311198],−0.9977
4,FC(F)(F)Oc1cccc(CN(CCCCNc2ccnc3cc(Cl)ccc23)Cc2ccccc2)c1 [SJ000520457],33.31
5,Clc1ccc2c(NCCCCN(Cc3ccccc3)Cc3cccnc3Br)ccnc2c1 [SJ000520453],2.377
6,FC(F)(F)c1cccc(CN(CCCCNc2ccnc3cc(Cl)ccc23)Cc2ccccc2)c1 [SJ000520455],26.38
7,CCCN(CCCCNc1ccnc2cc(Cl)ccc12)Cc1ccccc1 [SJ000311205],7.684
8,CCCN(CCCCNc1ccnc2cc(Cl)ccc12)CCCSC [SJ000311197],3.903
9,Clc1ccc2c(NCCCCN(Cc3ccccc3)Cc3ccco3)ccnc2c1 [SJ000312681],12.05
10,COc1ccc(O)c(CN2CCC(Nc3ccnc4cc(Cl)ccc34)CC2)c1 [SJ000357527],7.779
11,CCOC(=O)c1cnc2c(C(F)(F)F)cccc2c1NCCN1CCOCC1 [SJ000281260],0.8341
12,COc1ccc2nc3cc(Cl)ccc3c(NCCCNCc3ccsc3)c2c1 [SJ000523026],−353.8
13,CCc1ccc(CN(CCCCNc2ccnc3cc(Cl)ccc23)Cc2ccccc2)cc1 [SJ000520443],29.91
14,COc1ccc(S(=O)(=O)c2cnc3cc(OC)c(OC)cc3c2N2CCN(C)CC2)cc1 [SJ000083955],0.8227
15,CCC(C)CNCCCNc1c2ccc(Cl)cc2nc2ccc(OC)cc12 (stereo not drawn) [SJ000361093],−451.5
16,Cc1ccsc1CN(CCCCNc1ccnc2cc(Cl)ccc12)Cc1ccccc1 [SJ000361191],23.44
17,COc1ccc(N2CCN(c3c(S(=O)(=O)c4ccccc4)cnc4ccc(OC)cc34)CC2)cc1 [SJ000117071],−32.67
18,O=S(=O)(c1ccc(Cl)cc1)N1CCN(c2ccnc3cc(Cl)ccc23)CC1 [SJ000204656],−34.39
19,COc1ccc2ncc(S(=O)(=O)c3ccc(C)cc3)c(N3CCN(c4ccc(F)cc4)CC3)c2c1 [SJ000117059],−118.5
20,CCc1ccc(S(=O)(=O)c2cnc3ccccc3c2N2CCN(c3ccccc3F)CC2)cc1 [SJ000117079],−56.58
21,CCCN(CCCNc1c2ccc(Cl)cc2nc2ccc(OC)cc12)Cc1ccccc1OC [SJ000520950],−271.1
22,O=C(C[C@H]1CC[C@]2(CC1)OO[C@]1(O2)C2CC3CC(C2)CC1C3)NCCCCNc1ccnc2cc(Cl)ccc12 [SJ000578384],25.12
23,Clc1ccc2c(N3CCN(CCCN4CCN(c5ccnc6cc(Cl)ccc56)CC4)CC3)ccnc2c1 [SJ000518980],−2.989
24,CCOC(=O)c1cnc2ccc(OCC)cc2c1NCCN1CCOCC1 [SJ000027289],5.291
25,CCCN(CCCNc1c2ccc(Cl)cc2nc2ccc(OC)cc12)Cc1cc(OC)ccc1O [SJ000520933],−150.8
26,COc1ccc2ncc(S(=O)(=O)c3ccc(C)c(C)c3)c(N3CCN(c4ccccc4)CC3)c2c1 [SJ000117051],−52.48
27,Clc1ccc2c(NCCCCN(Cc3ccccc3)Cc3nccs3)ccnc2c1 [SJ000520448],−1.698
28,CN1CCN(c2c(S(=O)(=O)c3ccccc3)cnc3ccc(F)cc23)CC1 [SJ000083949],−11.5

# Same assay, conditions: single point TR-FRET screening of quinoline compounds against MAGE-A11:PCF11; 15 μM
row,SMILES,TR-FRET signal
1,Cc1ccc(F)cc1CN(CCCNc1ccnc2cc(Cl)ccc12)Cc1ccccc1 [SJ000520458],29.77
2,Clc1ccc2c(NCCCNCc3ccsc3)ccnc2c1 [SJ000523052],15.25
3,CCCN(CCCNc1ccnc2cc(C(F)(F)F)ccc12)Cc1cnn(C)c1 [SJ000575182],15.68
4,Clc1ccc2c(NCCCNCc3ccc[nH]3)ccnc2c1 [SJ000575192],52.99
5,FC(F)(F)c1ccc2c(NCCCNCc3cccnc3)ccnc2c1 [SJ000521042],15.04
6,Clc1ccc2c(NCCCNCC3CCCCC3)ccnc2c1 [SJ000361102],15.63
7,Cn1ccnc1CNCCCNc1ccnc2cc(C(F)(F)F)ccc12 [SJ000521068],10.19
8,CCOC(=O)c1cnc2c(C)cc(C)cc2c1NCCCN1CCOCC1 [SJ000173725],6.494
9,CCCN(CCCNc1ccnc2cc(Cl)ccc12)Cc1ccc(OC)c(F)c1 [SJ000522994],15.16
10,CCCN(CCCNc1ccnc2cc(Cl)ccc12)Cc1cccc(C#N)c1 [SJ000522763],12.91
11,CSCCCNCCCNc1ccnc2cc(Cl)ccc12 [SJ000523051],14.97
12,FC(F)(F)c1ccc2c(NCCCNCC3CCCCC3)ccnc2c1 [SJ000361110],27.12
13,CCCN(CCCNc1ccnc2cc(C(F)(F)F)ccc12)Cc1cc(OC(F)(F)F)ccc1OC [SJ000520485],5.6
14,COc1ccc(Oc2ccc3c(NCCCNCc4ccco4)ccnc3c2)cc1 [SJ000311218],36.25
15,CCCN(CCCNc1ccnc2cc(C(F)(F)F)ccc12)Cc1cc(F)ccc1C [SJ000521014],20.64
16,FC(F)(F)c1ccc2c(NCCCNCC3CCOC3)ccnc2c1 (stereo not drawn) [SJ000521065],15.56

row,SMILES,TR-FRET signal
1,CCCN(CCCNc1ccnc2cc(Cl)ccc12)Cc1ccccc1F [SJ000522757],21.99
2,FC(F)(F)c1cccc(Cc2ccc3c(NCCCNCc4ccco4)ccnc3c2)c1 [SJ000311298],27.01
3,Cn1cc(CN(CCCNc2ccnc3cc(Cl)ccc23)Cc2ccccc2)c2ccccc21 [SJ000520439],−9.311
4,CCC(CC)CNCCCNc1ccnc2cc(C(F)(F)F)ccc12 [SJ000361111],24.33
5,CCCN(CCCNc1ccnc2cc(Cl)ccc12)Cc1cc(F)cc(F)c1O [SJ000357597],15.96
6,CCCCCN(CCCNc1ccnc2cc(Cl)ccc12)Cc1ccccc1 [SJ000361173],26.56
7,CCCN(CCCNc1ccnc2cc(C(F)(F)F)ccc12)CC1CC1 [SJ000361266],48.15
8,CCC(CC)CNCCCNc1ccnc2cc(Cl)ccc12 [SJ000361103],16.55
9,COc1ccc2nc3cc(Cl)ccc3c(NCCCNCc3ccccc3N)c2c1 [SJ000523031],−57.15
10,CCCN(CCCNc1c2ccc(Cl)cc2nc2ccc(OC)cc12)Cc1cccc(C(F)(F)F)c1 [SJ000522986],16.15
11,CCOC(=O)c1cnc2ccc(OCC)cc2c1NCCCN1CCOCC1.Cl [SJ000279525],5.532
12,FC(F)(F)Oc1ccccc1CN(CCCNc1ccnc2cc(Cl)ccc12)Cc1ccccc1 [SJ000357599],19.76
13,CCCN(CCCNc1ccnc2cc(Cl)ccc12)Cc1cn(C)c2ccccc12 [SJ000522995],−1.532
14,CC(C)(C)c1ccc(Oc2ccc3c(NCCCNCc4ccco4)ccnc3c2)cc1 [SJ000311234],57.54
15,CCCN(CCCNc1ccnc2cc(Cl)ccc12)Cc1cccc2c1OCO2 [SJ000357594],18.14
16,CCCN(CCCNc1ccnc2cc(Cl)ccc12)Cc1cnn(C)c1 [SJ000523009],10.06
